Laboratory results as given in the CheMixHub ionic liquid set.

Test: xn = mol fraction of the nth substance listed

C=CC[n+]1ccn(C)c1.[Cl-] + NC(N)=O
101 kPa
Settings	electrical conductivity, 298 K [S/m]	electrical conductivity, 308 K [S/m]	electrical conductivity, 318 K [S/m]	electrical conductivity, 328 K [S/m]	electrical conductivity, 338 K [S/m]	viscosity, 298.15 K [mPa·s]
x1 = 0.5579	0.169	0.228	0.287	0.342	0.416	405
x1 = 0.6543	0.222	0.298	0.372	0.448	0.538	353
x1 = 0.7911	0.283	0.372	0.464	0.562	0.677	299
x1 = 1	0.411	0.498	0.618	0.736	0.862	255

C[N+](C)(CCO)Cc1ccccc1.[Cl-] + CC(=O)CCC(=O)O
101.33 kPa, x1 = 0.3333
Settings	viscosity [mPa·s]
293.15 K	2026
298.15 K	1235
303.15 K	785
308.15 K	518
313.15 K	353
318.15 K	248
323.15 K	179
328.15 K	133
333.15 K	101
338.15 K	78
343.15 K	61
348.15 K	49
353.15 K	40

CCCO + CC[n+]1ccn(CCOC)c1.N#C[S-]
100 kPa, x2 = 0
Settings	viscosity [mPa·s]
288.15 K	2.49
293.15 K	2.2
298.15 K	1.95
303.15 K	1.732
308.15 K	1.545
313.15 K	1.382
318.15 K	1.24

CCCCn1cc[n+](CCCC)c1.O=S(=O)([N-]S(=O)(=O)C(F)(F)F)C(F)(F)F + O
100 kPa, x2 = 0.1843
Settings	viscosity [mPa·s]
308.15 K	32.12
358.15 K	7.83
363.15 K	7.07

CC(=O)[O-].CC[n+]1ccn(C)c1 + N#C[S-].[Na+]
101 kPa, x2 = 0
Settings	electrical conductivity [S/m]	viscosity [mPa·s]
303.15 K	0.374	93.6
313.15 K	0.587	55.5

CCCC[n+]1ccn(C)c1.N#C[S-] + O
101 kPa
Settings	electrical conductivity [S/m]	viscosity [mPa·s]
298.15 K, x1 = 0.0004503	0.224	–
298.15 K, x1 = 0.0009182	0.395	–
298.15 K, x1 = 0.001853	0.716	–
298.15 K, x1 = 0.00477	1.451	–
298.15 K, x1 = 0.00776	1.952	–
298.15 K, x1 = 0.01001	2.3	–
298.15 K, x2 = 0.2007	–	33
298.15 K, x2 = 0.3169	–	25.9
298.15 K, x2 = 0.9437	4.47	–
298.15 K, x2 = 0.9626	4.02	–
298.15 K, x2 = 0.9781	3.33	–
308.15 K, x2 = 0.2007	–	22.5
318.15 K, x2 = 0.2007	–	16.2
318.15 K, x2 = 0.3169	–	13.24
318.15 K, x2 = 0.7201	–	4.66
328.15 K, x2 = 0	–	16.7
328.15 K, x2 = 0.0998	–	14.22
328.15 K, x2 = 0.6426	–	4.71
328.15 K, x2 = 0.7201	–	3.65
338.15 K, x2 = 0.3169	–	7.96
338.15 K, x2 = 0.5296	–	5.12
338.15 K, x2 = 0.7949	–	2.23
348.15 K, x2 = 0.5296	–	4.16

CCCN + CC(C)(C)O + CCCCCC[n+]1ccn(C)c1.F[B-](F)(F)F
298.15 K, 101 kPa
Settings	viscosity [mPa·s]
x2 = 0.0474, x1 = 0.3489	46.28
x2 = 0.0483, x1 = 0.4517	28.58
x2 = 0.05, x1 = 0.0708	120.9
x2 = 0.05, x1 = 0.8998	0.723
x2 = 0.0508, x1 = 0.2562	66.1
x2 = 0.0508, x1 = 0.8482	1.318
x2 = 0.0525, x1 = 0.7484	3.959
x2 = 0.0529, x1 = 0.6504	8.74
x2 = 0.055, x1 = 0.5488	16.3
x2 = 0.0572, x1 = 0.1668	88.1
x2 = 0.1042, x1 = 0.1719	73.7
x2 = 0.1487, x1 = 0.0497	96.6
x2 = 0.1555, x1 = 0.1488	66.7
x2 = 0.247, x1 = 0.0423	72.1
x2 = 0.251, x1 = 0.3468	15.17
x2 = 0.3138, x1 = 0.0592	53
x2 = 0.3494, x1 = 0.5505	1.808
x2 = 0.3508, x1 = 0.5993	1.244
x2 = 0.3529, x1 = 0.349	7.072
x2 = 0.3545, x1 = 0.4468	2.923
x2 = 0.3596, x1 = 0.0184	53.2
x2 = 0.4492, x1 = 0.1454	18.61
x2 = 0.4496, x1 = 0.0492	32.35
x2 = 0.6483, x1 = 0.1509	7.984
x2 = 0.6496, x1 = 0.2508	4.06
x2 = 0.6511, x1 = 0.299	2.994
x2 = 0.6551, x1 = 0.0445	15.43
x2 = 0.7929, x1 = 0.1032	7.67
x2 = 0.8001, x1 = 0.15	5.198
x2 = 0.8965, x1 = 0.0518	7.226

CC[N+](CC)(CC)CC.[Cl-] + CC(=O)CCC(=O)O
101.3 kPa, x1 = 0.3333
Settings	viscosity [mPa·s]
298.15 K	140
308.15 K	83.8
318.15 K	52.7
328.15 K	33
338.15 K	20.23
